Measurements from ChEMBL document CHEMBL4024743, “BACE-1 Inhibitors: From Recent Single-Target Molecules to Multitarget Compounds for Alzheimer's Disease” (J Med Chem, 2018).
pIC50: −log10 of the molar value. Blank lines part the entries; values can stand above or below the compound they belong to.

Legend:
[1] = target: Glycogen synthase kinase-3 beta (Homo sapiens, UniProt P49841); test: Inhibition of recombinant human GSK3beta using prephosphorylated polypeptide as substrate preincubated for 30 mins followed by addition of kinase-glo stop solution measured after 10 mins by Kinase-Glo luminescence assay
Chain of Glycogen synthase kinase-3 beta (P49841 whole entry): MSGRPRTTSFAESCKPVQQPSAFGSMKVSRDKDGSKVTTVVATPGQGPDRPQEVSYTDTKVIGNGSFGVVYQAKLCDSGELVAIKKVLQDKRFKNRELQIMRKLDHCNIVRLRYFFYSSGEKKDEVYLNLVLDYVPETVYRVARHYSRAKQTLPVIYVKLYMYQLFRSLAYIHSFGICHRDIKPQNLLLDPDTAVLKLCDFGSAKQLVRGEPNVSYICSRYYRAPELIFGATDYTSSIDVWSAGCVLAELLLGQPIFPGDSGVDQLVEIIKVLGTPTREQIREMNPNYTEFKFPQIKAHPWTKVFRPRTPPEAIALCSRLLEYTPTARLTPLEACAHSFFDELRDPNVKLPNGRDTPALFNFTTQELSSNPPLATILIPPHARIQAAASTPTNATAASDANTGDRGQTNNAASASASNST

[2] = Drug uptake in CD16 mouse brain at 3 mg/kg, po after 30 mins by LC-MS/MS analysis; assay type: ADME, organism-based; conditions: read-out: Drug uptake
[3] = Oral bioavailability in CD16 mouse at 10 mg/kg; assay type: ADME, organism-based; conditions: in vivo
Beta-secretase 1 [4] = target: T1, Beta-secretase 1 (Homo sapiens, UniProt P56817); test: Inhibition of human BACE-1 preincubated for 1 hr followed by substrate addition measured after 60 mins by FRET assay
T1 sequence (P56817 whole entry): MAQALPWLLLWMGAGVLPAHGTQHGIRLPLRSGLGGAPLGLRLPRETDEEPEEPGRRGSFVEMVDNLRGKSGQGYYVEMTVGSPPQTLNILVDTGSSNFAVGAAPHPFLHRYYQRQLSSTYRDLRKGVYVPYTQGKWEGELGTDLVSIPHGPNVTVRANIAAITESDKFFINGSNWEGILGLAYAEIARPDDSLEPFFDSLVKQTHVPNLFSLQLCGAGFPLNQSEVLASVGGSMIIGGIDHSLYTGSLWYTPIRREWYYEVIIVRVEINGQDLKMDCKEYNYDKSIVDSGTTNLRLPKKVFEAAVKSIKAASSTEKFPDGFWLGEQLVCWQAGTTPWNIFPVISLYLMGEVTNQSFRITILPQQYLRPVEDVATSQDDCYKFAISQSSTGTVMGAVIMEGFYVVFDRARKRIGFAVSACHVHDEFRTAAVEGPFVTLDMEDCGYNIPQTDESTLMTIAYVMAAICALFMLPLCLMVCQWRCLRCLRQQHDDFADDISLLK

Beta-secretase 1 [5] = target: T1, Beta-secretase 1
Description: Inhibition of BACE-1 (unknown origin) using APP derived polypeptide harboring Lys-Met/Asn-Leu mutation as substrate by FRET assay

Beta-secretase 1 [6] = target: T1, Beta-secretase 1; test: Inhibition of BACE-1 (unknown origin)

SMILES: NC1=NC(c2ccc(F)cc2)NC(=O)N1 (stereo not drawn)
pIC50 [1]: 4.83
concentration at 0.5 h [2]: 620 nM
bioavailability [3]: 66%

SMILES: CC#Cc1cncc(-c2ccc3c(c2)[C@]2(CO3)N=C(N)C[C@@H]2C(F)(F)F)c1
pIC50 (Beta-secretase 1 [5]): 6.94

SMILES: CC1Cc2ccc(OC(=O)c3ccc(NC(=N)N)cc3)cc2OC1=O (stereo not drawn)
pIC50 (Beta-secretase 1 [4]): 5.82

Results, then the compound that gave them:

pIC50 (Beta-secretase 1 [4]): 5.74
SMILES: OC1=C2Nc3ccccc3N=C2OC1c1c[nH]c2ccc(COc3ccccc3)cc12 (stereo not drawn)

pIC50 (Beta-secretase 1 [6]): 4.52
SMILES: O=C1NC(=O)C2C=CNC2N1 (stereo not drawn)

pIC50 (Beta-secretase 1 [4]): 5.18
SMILES: O=C1CSC2(CCN(CCCN3c4ccccc4Sc4ccc(Cl)cc43)CC2)N1 [SPICLOMAZINE]
